{"source": "patent US20110136666A1", "about": "“CHEMICAL COMPOUNDS” (SYNGENTA CROP PROTECTION, INC., priority 2008, published 2011)", "data": [{"system": "Alopecurus myosuroides (ALOMY)", "experiment": "Pre-emergence biological efficacy, glasshouse pot test", "format": "in vivo", "conditions": "312 h, 1000 g/ha, after 13 days, 100=total damage, 0=no damage, read-out: Percentage damage caused to weed species ALOMY", "procedure": "(§1) Seeds of Alopecurus myosuroides (ALOMY), Setaria faberi (SETFA), Echinochloa crus-galli (ECHCG), Solanum nigrum (SOLNI), Amaranthus retroflexus (AMARE) and Ipomea hederaceae (IPOHE) were sown in standard soil in pots. After cultivation for one day under controlled conditions in a glasshouse (at 24/16° C., day/night; 14 hours light; 65% humidity), the plants were sprayed with an aqueous spray solution derived from the formulation of the technical active ingredient in acetone/water (50:50) solution containing 0.5% Tween 20 (polyoxyethylene sorbitan monolaurate, CAS RN 9005-64-5) to give a final dose of 250 or 1000 g/ha of test compound.\n(§2) The test plants were then grown under controlled conditions in the glasshouse (at 24/16° C., day/night; 14 hours light; 65% humidity) and watered twice daily. After 13 days the test was evaluated (100=total damage to plant; 0=no damage to plant).", "units": {"pest or weed control at 1000 g/ha": "%"}, "values": [{"compound": "COC(=O)c1nc(-c2cc(Cl)nc(Cl)c2)nc(N)c1Cl", "note": "[Compound 2-179, 4-Amino-5-chloro-2-(2,6-dichloropyridin-4-yl)-6-methoxycarbonyl pyrimidine]", "pest or weed control at 1000 g/ha": 0}, {"compound": "COC(=O)c1nc(-c2cnc(OC)nc2)nc(N)c1Cl", "note": "[Compound 2-182, 4-Amino-5-chloro-6-methoxycarbonyl-2-(2-methoxypyrimidin-5-yl)-pyrimidine]", "pest or weed control at 1000 g/ha": 0}]}, {"system": "Amaranthus retroflexus (AMARE)", "experiment": "Pre-emergence biological efficacy, glasshouse pot test", "format": "in vivo", "conditions": "312 h, 1000 g/ha, after 13 days, 100=total damage, 0=no damage, read-out: Percentage damage caused to weed species AMARE", "procedure": "as §1, §2", "units": {"pest or weed control at 1000 g/ha": "%"}, "values": [{"compound": "COC(=O)c1nc(-c2cc(Cl)nc(Cl)c2)nc(N)c1Cl", "note": "[Compound 2-179, 4-Amino-5-chloro-2-(2,6-dichloropyridin-4-yl)-6-methoxycarbonyl pyrimidine]", "pest or weed control at 1000 g/ha": 0}, {"compound": "COC(=O)c1nc(-c2cnc(OC)nc2)nc(N)c1Cl", "note": "[Compound 2-182, 4-Amino-5-chloro-6-methoxycarbonyl-2-(2-methoxypyrimidin-5-yl)-pyrimidine]", "pest or weed control at 1000 g/ha": 0}]}, {"system": "Echinochloa crus-galli (ECHCG)", "experiment": "Pre-emergence biological efficacy, glasshouse pot test", "format": "in vivo", "conditions": "312 h, 1000 g/ha, after 13 days, 100=total damage, 0=no damage, read-out: Percentage damage caused to weed species ECHCG", "procedure": "as §1, §2", "units": {"pest or weed control at 1000 g/ha": "%"}, "values": [{"compound": "COC(=O)c1nc(-c2cc(Cl)nc(Cl)c2)nc(N)c1Cl", "note": "[Compound 2-179, 4-Amino-5-chloro-2-(2,6-dichloropyridin-4-yl)-6-methoxycarbonyl pyrimidine]", "pest or weed control at 1000 g/ha": 0}, {"compound": "COC(=O)c1nc(-c2cnc(OC)nc2)nc(N)c1Cl", "note": "[Compound 2-182, 4-Amino-5-chloro-6-methoxycarbonyl-2-(2-methoxypyrimidin-5-yl)-pyrimidine]", "pest or weed control at 1000 g/ha": 0}]}, {"system": "Ipomea hederaceae (IPOHE)", "experiment": "Pre-emergence biological efficacy, glasshouse pot test", "format": "in vivo", "conditions": "Ipomoea hederacea, 312 h, 1000 g/ha, after 13 days, 100=total damage, 0=no damage, read-out: Percentage damage caused to weed species IPOHE", "procedure": "as §1, §2", "units": {"pest or weed control at 1000 g/ha": "%"}, "values": [{"compound": "COC(=O)c1nc(-c2cc(Cl)nc(Cl)c2)nc(N)c1Cl", "note": "[Compound 2-179, 4-Amino-5-chloro-2-(2,6-dichloropyridin-4-yl)-6-methoxycarbonyl pyrimidine]", "pest or weed control at 1000 g/ha": 0}, {"compound": "COC(=O)c1nc(-c2cnc(OC)nc2)nc(N)c1Cl", "note": "[Compound 2-182, 4-Amino-5-chloro-6-methoxycarbonyl-2-(2-methoxypyrimidin-5-yl)-pyrimidine]", "pest or weed control at 1000 g/ha": 0}]}, {"system": "Setaria faberi (SETFA)", "experiment": "Pre-emergence biological efficacy, glasshouse pot test", "format": "in vivo", "conditions": "312 h, 1000 g/ha, after 13 days, 100=total damage, 0=no damage, read-out: Percentage damage caused to weed species SETFA", "procedure": "as §1, §2", "units": {"pest or weed control at 1000 g/ha": "%"}, "values": [{"compound": "COC(=O)c1nc(-c2cc(Cl)nc(Cl)c2)nc(N)c1Cl", "note": "[Compound 2-179, 4-Amino-5-chloro-2-(2,6-dichloropyridin-4-yl)-6-methoxycarbonyl pyrimidine]", "pest or weed control at 1000 g/ha": 0}, {"compound": "COC(=O)c1nc(-c2cnc(OC)nc2)nc(N)c1Cl", "note": "[Compound 2-182, 4-Amino-5-chloro-6-methoxycarbonyl-2-(2-methoxypyrimidin-5-yl)-pyrimidine]", "pest or weed control at 1000 g/ha": 0}]}, {"system": "Solanum nigrum (SOLNI)", "experiment": "Pre-emergence biological efficacy, glasshouse pot test", "format": "in vivo", "conditions": "312 h, 1000 g/ha, after 13 days, 100=total damage, 0=no damage, read-out: Percentage damage caused to weed species SOLNI", "procedure": "as §1, §2", "units": {"pest or weed control at 1000 g/ha": "%"}, "values": [{"compound": "COC(=O)c1nc(-c2cc(Cl)nc(Cl)c2)nc(N)c1Cl", "note": "[Compound 2-179, 4-Amino-5-chloro-2-(2,6-dichloropyridin-4-yl)-6-methoxycarbonyl pyrimidine]", "pest or weed control at 1000 g/ha": 0}, {"compound": "COC(=O)c1nc(-c2cnc(OC)nc2)nc(N)c1Cl", "note": "[Compound 2-182, 4-Amino-5-chloro-6-methoxycarbonyl-2-(2-methoxypyrimidin-5-yl)-pyrimidine]", "pest or weed control at 1000 g/ha": 40}]}, {"system": "Alopecurus myosuroides (ALOMY)", "experiment": "Post-emergence biological efficacy, glasshouse pot test", "format": "in vivo", "conditions": "312 h, 1000 g/ha, after 13 days, 100=total damage, 0=no damage, read-out: Percentage damage caused to weed species ALOMY", "procedure": "as §1, with “8 days” for “one day”\n(§3) The test plants were then grown on under controlled conditions in a glasshouse (at 24/16° C., day/night; 14 hours light; 65% humidity) and watered twice daily. After 13 days the test was evaluated (100=total damage to plant; 0=no damage to plant).", "units": {"pest or weed control at 1000 g/ha": "%"}, "values": [{"compound": "COC(=O)c1nc(-c2cc(Cl)nc(Cl)c2)nc(N)c1Cl", "note": "[Compound 2-179, 4-Amino-5-chloro-2-(2,6-dichloropyridin-4-yl)-6-methoxycarbonyl pyrimidine]", "pest or weed control at 1000 g/ha": 0}, {"compound": "COC(=O)c1nc(-c2cnc(OC)nc2)nc(N)c1Cl", "note": "[Compound 2-182, 4-Amino-5-chloro-6-methoxycarbonyl-2-(2-methoxypyrimidin-5-yl)-pyrimidine]", "pest or weed control at 1000 g/ha": 0}]}, {"system": "Amaranthus retroflexus (AMARE)", "experiment": "Post-emergence biological efficacy, glasshouse pot test", "format": "in vivo", "conditions": "312 h, 1000 g/ha, after 13 days, 100=total damage, 0=no damage, read-out: Percentage damage caused to weed species AMARE", "procedure": "as §1, with “8 days” for “one day”\nas §3", "units": {"pest or weed control at 1000 g/ha": "%"}, "values": [{"compound": "COC(=O)c1nc(-c2cc(Cl)nc(Cl)c2)nc(N)c1Cl", "note": "[Compound 2-179, 4-Amino-5-chloro-2-(2,6-dichloropyridin-4-yl)-6-methoxycarbonyl pyrimidine]", "pest or weed control at 1000 g/ha": 30}, {"compound": "COC(=O)c1nc(-c2cnc(OC)nc2)nc(N)c1Cl", "note": "[Compound 2-182, 4-Amino-5-chloro-6-methoxycarbonyl-2-(2-methoxypyrimidin-5-yl)-pyrimidine]", "pest or weed control at 1000 g/ha": 20}]}, {"system": "Echinochloa crus-galli (ECHCG)", "experiment": "Post-emergence biological efficacy, glasshouse pot test", "format": "in vivo", "conditions": "312 h, 1000 g/ha, after 13 days, 100=total damage, 0=no damage, read-out: Percentage damage caused to weed species ECHCG", "procedure": "as §1, with “8 days” for “one day”\nas §3", "units": {"pest or weed control at 1000 g/ha": "%"}, "values": [{"compound": "COC(=O)c1nc(-c2cc(Cl)nc(Cl)c2)nc(N)c1Cl", "note": "[Compound 2-179, 4-Amino-5-chloro-2-(2,6-dichloropyridin-4-yl)-6-methoxycarbonyl pyrimidine]", "pest or weed control at 1000 g/ha": 0}, {"compound": "COC(=O)c1nc(-c2cnc(OC)nc2)nc(N)c1Cl", "note": "[Compound 2-182, 4-Amino-5-chloro-6-methoxycarbonyl-2-(2-methoxypyrimidin-5-yl)-pyrimidine]", "pest or weed control at 1000 g/ha": 0}]}, {"system": "Ipomea hederaceae (IPOHE)", "experiment": "Post-emergence biological efficacy, glasshouse pot test", "format": "in vivo", "conditions": "Ipomoea hederacea, 312 h, 1000 g/ha, after 13 days, 100=total damage, 0=no damage, read-out: Percentage damage caused to weed species IPONE", "procedure": "as §1, with “8 days” for “one day”\nas §3", "units": {"pest or weed control at 1000 g/ha": "%"}, "values": [{"compound": "COC(=O)c1nc(-c2cc(Cl)nc(Cl)c2)nc(N)c1Cl", "note": "[Compound 2-179, 4-Amino-5-chloro-2-(2,6-dichloropyridin-4-yl)-6-methoxycarbonyl pyrimidine]", "pest or weed control at 1000 g/ha": 40}, {"compound": "COC(=O)c1nc(-c2cnc(OC)nc2)nc(N)c1Cl", "note": "[Compound 2-182, 4-Amino-5-chloro-6-methoxycarbonyl-2-(2-methoxypyrimidin-5-yl)-pyrimidine]", "pest or weed control at 1000 g/ha": 30}]}, {"system": "Setaria faberi (SETFA)", "experiment": "Post-emergence biological efficacy, glasshouse pot test", "format": "in vivo", "conditions": "312 h, 1000 g/ha, after 13 days, 100=total damage, 0=no damage, read-out: Percentage damage caused to weed species SETFA", "procedure": "as §1, with “8 days” for “one day”\nas §3", "units": {"pest or weed control at 1000 g/ha": "%"}, "values": [{"compound": "COC(=O)c1nc(-c2cc(Cl)nc(Cl)c2)nc(N)c1Cl", "note": "[Compound 2-179, 4-Amino-5-chloro-2-(2,6-dichloropyridin-4-yl)-6-methoxycarbonyl pyrimidine]", "pest or weed control at 1000 g/ha": 10}, {"compound": "COC(=O)c1nc(-c2cnc(OC)nc2)nc(N)c1Cl", "note": "[Compound 2-182, 4-Amino-5-chloro-6-methoxycarbonyl-2-(2-methoxypyrimidin-5-yl)-pyrimidine]", "pest or weed control at 1000 g/ha": 10}]}, {"system": "Solanum nigrum (SOLNI)", "experiment": "Post-emergence biological efficacy, glasshouse pot test", "format": "in vivo", "conditions": "312 h, 1000 g/ha, after 13 days, 100=total damage, 0=no damage, read-out: Percentage damage caused to weed species SOLNI", "procedure": "as §1, with “8 days” for “one day”\nas §3", "units": {"pest or weed control at 1000 g/ha": "%"}, "values": [{"compound": "COC(=O)c1nc(-c2cc(Cl)nc(Cl)c2)nc(N)c1Cl", "note": "[Compound 2-179, 4-Amino-5-chloro-2-(2,6-dichloropyridin-4-yl)-6-methoxycarbonyl pyrimidine]", "pest or weed control at 1000 g/ha": 30}, {"compound": "COC(=O)c1nc(-c2cnc(OC)nc2)nc(N)c1Cl", "note": "[Compound 2-182, 4-Amino-5-chloro-6-methoxycarbonyl-2-(2-methoxypyrimidin-5-yl)-pyrimidine]", "pest or weed control at 1000 g/ha": 70}]}]}
